Assay results from patent US10870638B2, “Pyridazinone compound or its salt, and herbicide containing it” (ISHIHARA SANGYO KAISHA, LTD., priority 2016, dated 2020).

Key:
Assay type in all cases: in vivo
rice (Oryza sativa L.) [1] = experiment: Test Example 2: soil application on the day after sowing, growth inhibition rate on 14th day; details: active ingredient amount 31 g/ha, 14th day after application
How it was run: (§1)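 Field soil in 1/300,000 ha pots was sown, and the next day compounds formulated as wettable powders or emulsifiable concentrates were diluted in water (1,000 L/ha) and soil-sprayed at the prescribed active ingredient rates. Growth inhibition was scored visually 14 days later, 0 (untreated) to 100 (complete kill).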

[2] = test system: barnyardgrass (Echinochloa crus-qalli L.); experiment: as above; details: active ingredient amount 31 g/ha, 14th day after application
How it was run: as §1

corn (Zea mays L.) [3] = experiment: as above; details: active ingredient amount 31 g/ha, 14th day after application
How it was run: as §1

[4] = test system: wheat (Triticum aestivum L.); experiment: as above; details: active ingredient amount 31 g/ha, 14th day after application
How it was run: as §1

[5] = test system: prickly sida (Sida spinosa L.); experiment: as above; details: active ingredient amount 31 g/ha, 14th day after application
How it was run: as §1

[6] = test system: crabgrass (Digitaris sanquinalis L.); experiment: as above; details: active ingredient amount 31 g/ha, 14th day after application
How it was run: as §1

[7] = test system: redroot pigweed (Amaranthus retroflexus L.); experiment: as above; details: active ingredient amount 31 g/ha, 14th day after application
How it was run: as §1

[8] = test system: green foxtail (Setaria viridis L.); experiment: as above; details: active ingredient amount 31 g/ha, 14th day after application
How it was run: as §1

[9] = test system: soybean (Glycine max Merr.); experiment: as above; details: active ingredient amount 31 g/ha, 14th day after application
How it was run: as §1

[10] = test system: velvetleaf (Abutilon theophrasti MEDIC.); experiment: as above; details: active ingredient amount 31 g/ha, 14th day after application
How it was run: as §1

rice (Oryza sativa L.) [11] = experiment: Test Example 1: foliar treatment, growth inhibition rate on 14th day; details: active ingredient amount 31 g/ha, 14th day after application, visual, 0 = non-treated, 100 = complete kill
How it was run: (§2)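 Sow seeds in upland soil pots; at target leaf stage (wild oat 0.4–1.2, rice 0.2–2.7, foxtail 0.5–3.2, soybean primary leaf) spray formulated compound in water, 1,000 L/ha, 0.1 vol % surfactant. Score inhibition visually at day 14, 0–100%.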

[12] = test system: barnyardgrass (Echinochloa crus-qalli L.); experiment: as above; details: active ingredient amount 31 g/ha, 14th day after application, visual, 0 = non-treated, 100 = complete kill
How it was run: (§3)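 Using a small sprayer, formulated compound in water (0.1 vol % surfactant, 1,000 L/ha) was applied to seedlings grown from seed in upland soil. Fourteen days on, growth state was observed and expressed as percent inhibition from 0 to 100.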

corn (Zea mays L.) [13] = experiment: as above; details: active ingredient amount 31 g/ha, 14th day after application, visual, 0 = non-treated, 100 = complete kill
How it was run: as §3

[14] = test system: wheat (Triticum aestivum L.); experiment: as above; details: active ingredient amount 31 g/ha, 14th day after application, visual, 0 = non-treated, 100 = complete kill
How it was run: as §3

[15] = test system: crabgrass (Digitaria sanquinalis L.); experiment: as above; details: active ingredient amount 31 g/ha, 14th day after application, visual, 0 = non-treated, 100 = complete kill
How it was run: as §3

[16] = test system: redroot pigweed (Amaranthus retroflexus L.); experiment: as above; details: active ingredient amount 31 g/ha, 14th day after application, visual, 0 = non-treated, 100 = complete kill
How it was run: as §3

[17] = test system: green foxtail (Setaria viridis L.); experiment: as above; details: active ingredient amount 31 g/ha, 14th day after application, visual, 0 = non-treated, 100 = complete kill
How it was run: as §2

[18] = test system: soybean (Glycine max Merr.); experiment: as above; details: active ingredient amount 31 g/ha, 14th day after application, visual, 0 = non-treated, 100 = complete kill
How it was run: as §2

[19] = test system: italian ryegrass (Lolium multiflorum Lam.); experiment: as above; details: active ingredient amount 31 g/ha, 14th day after application, visual, 0 = non-treated, 100 = complete kill
How it was run: as §3

[20] = test system: wild oat (Avena fatua L.); experiment: as above; details: active ingredient amount 31 g/ha, 14th day after application, visual, 0 = non-treated, 100 = complete kill
How it was run: as §2

Row | Compound | Growth inhibition rate (%) Rice (rice (Oryza sativa L.) [1]) | Growth inhibition rate (%) Barnyardgrass [2] | Growth inhibition rate (%) Corn (corn (Zea mays L.) [3]) | Growth inhibition rate (%) Wheat [4] | Growth inhibition rate (%) Prickly sida [5] | Growth inhibition rate (%) Crabgrass [6] | Growth inhibition rate (%) Redroot pigweed [7] | Growth inhibition rate (%) Green foxtail [8] | Growth inhibition rate (%) Soybean [9] | Growth inhibition rate (%) Velvetleaf [10] | Growth inhibition rate (%) Rice (rice (Oryza sativa L.) [11]) | Growth inhibition rate (%) Barnyardgrass [12] | Growth inhibition rate (%) Corn (corn (Zea mays L.) [13]) | Growth inhibition rate (%) Wheat [14] | Growth inhibition rate (%) Crabgrass [15] | Growth inhibition rate (%) Redroot pigweed [16] | Growth inhibition rate (%) Green foxtail [17] | Growth inhibition rate (%) Soybean [18] | Growth inhibition rate (%) Italian ryegrass [19] | Growth inhibition rate (%) Wild oat [20]
1 | Cc1ccc(Oc2cnc3cc(Cl)ccc3n2)cc1-c1c(OC(=O)Oc2ccc(F)cc2)c(C)nn(C)c1=O [Compound 3-57] | 0% | 90% | 40% | 0% | 0% | 30% | 0% | 95% | 30% | 0% | 0% | 100% | 25% | 95% | 99% | 0% | 100% | 25% | 95% | 99%
2 | C=CCOC(=O)Oc1c(C)nn(C)c(=O)c1-c1cc(Oc2cnc3cc(Cl)ccc3n2)ccc1C [Compound 3-58] | 0% | 85% | 0% | 0% | 0% | 10% | 0% | 75% | 0% | 0% | 50% | 100% | 55% | 98% | 99% | 0% | 100% | 25% | 99% | 95%
3 | Cc1ccc(Oc2cnc3cc(Cl)ccc3n2)cc1-c1c(OC(=O)OCCCl)c(C)nn(C)c1=O [Compound 3-59] | 0% | 85% | 0% | 0% | 0% | 0% | 0% | 80% | 0% | 0% | 0% | 99% | 0% | 65% | 98% | 0% | 100% | 20% | 93% | 93%
4 | C#CCOC(=O)Oc1c(C)nn(C)c(=O)c1-c1cc(Oc2cnc3cc(Cl)ccc3n2)ccc1C [Compound 3-64] | 0% | 98% | 0% | 0% | 0% | 50% | 0% | 93% | 0% | 0% | 0% | 98% | 50% | 60% | 90% | 0% | 100% | 0% | 85% | 83%
5 | Cc1ccc(Oc2cnc3cc(Cl)ccc3n2)cc1-c1c(OS(=O)(=O)C(F)(F)F)c(C)nn(C)c1=O [Compound 3-69] | 0% | 93% | 0% | 0% | 0% | 30% | 0% | 95% | 0% | 0% | 30% | 100% | 20% | 98% | 95% | 0% | 100% | 0% | 99% | 99%
6 | CCOC(=O)C(=O)Oc1c(C)nn(C)c(=O)c1-c1cc(Oc2cnc3cc(Cl)ccc3n2)ccc1C [Compound 3-79] | 0% | 100% | 0% | 0% | 0% | 95% | 0% | 100% | 0% | 0% | 99% | 100% | 50% | 93% | 98% | 0% | 100% | 30% | 99% | 98%
7 | C#CC(=O)Oc1c(C)nn(C)c(=O)c1-c1cc(Oc2cnc3cc(Cl)ccc3n2)ccc1C [Compound 3-82] | 0% | 99% | 0% | 0% | 0% | 85% | 0% | 99% | 0% | 0% | 93% | 100% | 35% | 98% | 98% | 10% | 100% | 0% | 98% | 98%
8 | CCn1nc(C)c(O)c(-c2cc(Oc3cnc4cc(Cl)ccc4n3)ccc2C)c1=O [Compound 3-96] | 75% | 99% | 0% | 0% | 0% | 98% | 0% | 85% | 0% | 0% | 95% | 100% | 20% | 95% | 100% | 0% | 100% | 0% | 99% | 98%
